Assay results from patent US9656995B2, “Triazine derivative” (Carna Biosciences, Inc., priority 2013, dated 2017).
Entries after “also recorded” stand apart in the source; their conditions may differ.

Columns and labels:
[1] = test system: collagen-induced arthritis; experiment: Rat collagen-induced arthritis model; type: in vivo; settings: Lewis rat, 30 and 60 mg/kg orally twice a day
Method: Effect in Rat Collagen-Induced Arthritis Model
Incomplete Freund's Adjuvant (Sigma-Aldrich, #F5506) and Bovine Type II Collagen, 4 mg/mL Solution (Sichuan University, Lot.08H0497) were mixed in a 1:1 ratio to form an emulsion. Three groups of Lewis rat (10 animals/group) (5-6 week old, female) received 0.5 mL per animal of the emulsion which was given in small portions on Day 0 and Day 7 by intradermal injection at 3 sites, one site at the base of the tail (0.1 mL), and the rest of two sites (0.2 mL/site) were on the back of the rat near to the base of the tail, thereby accomplishing the immunization. The solvent or the test compound solution was given twice a day orally every day from Day 0 to Day 20 (test compound doses in the respective groups: 0 mg/kg, 30 mg/kg, 60 mg/kg). The treatment solution was prepared with the similar solvent in the similar manner as Test Example 4.
After the boost on Day 7, the state of the arthritis onset in each extremity was scored visually twice in a week according to the criteria shown in Table 8. The scores of all four extremities were summed up on each rat basis, and the mean value of 10 animals in each group was represented as an arthritis score (normal “0” up to maximum “16”).

BTK = biological target: T1, BTK (Homo sapiens, UniProt Q06187); experiment: Intracellular BTK auto-phosphorylation activity inhibition test in Ramos cells; type: cell-based; settings: test compound 0.3 μM, anti-IgM stimulation, pY223, read-out: BTK Phosphorylation inhibiting activity
T1 construct: endogenous in cells; host or cells: Ramos cells (2G6.4C10, ATCC No. CRL-1923)
T1 sequence (Q06187 whole entry): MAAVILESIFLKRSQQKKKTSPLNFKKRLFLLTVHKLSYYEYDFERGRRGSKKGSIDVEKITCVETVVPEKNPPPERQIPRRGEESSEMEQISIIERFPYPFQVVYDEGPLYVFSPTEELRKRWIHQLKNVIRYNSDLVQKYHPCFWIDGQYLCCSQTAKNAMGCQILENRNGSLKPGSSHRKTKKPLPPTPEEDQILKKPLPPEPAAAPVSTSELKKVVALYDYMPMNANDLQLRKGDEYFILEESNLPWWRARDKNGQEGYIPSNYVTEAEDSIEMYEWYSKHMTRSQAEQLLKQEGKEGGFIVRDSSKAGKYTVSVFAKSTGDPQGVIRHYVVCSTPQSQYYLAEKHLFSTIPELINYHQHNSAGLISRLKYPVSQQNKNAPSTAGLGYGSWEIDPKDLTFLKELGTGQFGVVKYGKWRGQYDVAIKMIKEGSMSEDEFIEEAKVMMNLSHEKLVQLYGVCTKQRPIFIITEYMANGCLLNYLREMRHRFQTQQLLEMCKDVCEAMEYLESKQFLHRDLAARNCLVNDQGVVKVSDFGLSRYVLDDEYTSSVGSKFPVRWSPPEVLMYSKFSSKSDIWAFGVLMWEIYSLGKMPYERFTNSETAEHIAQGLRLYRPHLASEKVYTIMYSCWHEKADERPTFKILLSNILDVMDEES
Method: Intracellular BTK Auto-Phosphorylation Activity Inhibition Test
(Culture of Cells to be Used)
Ramos cells (2G6.4C10, ATCC No. CRL-1923) were cultured in a T75 flask containing RPMI-1640 medium (GIBCO, #A10491-01) supplemented with 10% FBS (AusGene) and 5% penicillin-streptomycin (Nacalai Tesque, Inc.) (hereinafter referred to as growth medium) in a 5% CO2 incubator.
(Addition of the Compound to be Tested)
The cultured Ramos cells were diluted to a cell density of 7.5×10^6 cells/mL with a serum-free RPMI-1640 (hereinafter referred to as medium) and kept at 37° C. for 45 minutes. The cell suspension was dispensed in 1 mL aliquots into 2.0 mL tubes. […]
To the pellets obtained by recovering the cells via centrifugation, 100 μL of a lysis buffer [RIPA Buffer(×1) (Cell Signaling Technology, Inc.) supplemented with 1% Phosphatase inhibitor Cacktail 3 (Sigma Corporation, No. P0044), 1% Phosphatase inhibitor Cacktail (Nacalai Tesque, Inc., No. 07575) and 1 mM phenylmethylsulfonyl fluoride (PMSF)] was added and stirred gently and then allowed to stand for 10 minutes. The supernatant was recovered by centrifugation (15,000 rpm, 15 minutes) and the protein level was quantified. […]

[2] = test system: BCR signal in the Ramos cells; experiment: Inhibition test on the change of Ramos intracellular calcium ion (anti-IgM BCR stimulation); type: cell-based; settings: 0.003-1 μM, anti-IgM 2.0 μg/mL (FIG. 1)
Method: Inhibition Test on the Change of Ramos Intracellular Calcium Ion
The intracellular BTK inhibition by the compounds of the invention was verified by measuring the effects of the compounds of the invention on “anti-IgM antibody BCR stimulation-induced intracellular calcium influx”.
(Addition of Cell Suspension and Calcium Indicator)
One day before measurement, the Ramos cells were cultured after suspended again at a cell density of 1.0×10^6 cells/mL in a fresh growth medium (growth medium as used in Test Example 2), and the cells were recovered next day by centrifugation and washed with RPMI-1640 medium supplemented with 5% penicillin-streptomycin (Nacalai Tesque, Inc.) (Medium 1). These cells were suspended again at a cell density of 2.0×10^6 cells/mL in RPMI-1640 medium supplemented with 1% Ultra Low IgG FBS (GIBCO, #16250) and 5% penicillin-streptomycin (Nacalai Tesque, Inc.) (Medium 2), and thereafter each 100 μL of the cell suspension was added to each well of a poly lysine-coated microplate (BD BioCoat™, #356692), centrifuged (700 rpm, 3 minutes) and then incubated for 1 hour in a 5% CO2 incubator at 37° C. […]
Concentration of the Ramos intracellular calcium ion was measured as a fluorescent intensity of the calcium indicator Fluo-8NW using a microplate reader (SynergyH1) (Ex/Em=490/525 nm). […]

[3] = test system: collagen-induced arthritis; experiment: Mouse collagen-induced arthritis model; type: in vivo; settings: DBA/1J mice, 30 and 60 mg/kg orally twice a day
Method: Effect in Mouse Collagen-Induced Arthritis Model
Incomplete Freund's Adjuvant (Chondrex, Inc., #7002) supplemented with M. Tuberculosis H37 Ra, Desiccated (Beckton Dickinson and Company, #231141) at 2.5 mg/mL and Bovine Type II Collagen, 2 mg/mL Solution (Chondrex, Inc., #20022) were mixed in a 1:1 ratio to form an emulsion.
Three groups of DBA/1J mice (10 animals/group) (6-week old, male) received 0.1 mL per animal of the emulsion which was given in small portions on Day 0 and Day 21 by intradermal injection at the base of the tail, thereby accomplishing the immunization. The solvent or the test compound solution was given twice a day orally every day from Day 18 to Day 36 (test compound doses in the respective groups: 0 mg/kg, 30 mg/kg, 60 mg/kg). The treatment solution was prepared with the similar solvent in the similar manner as Test Example 4.
After the boost on Day 21, the state of the arthritis onset in each extremity was scored visually once in 2 or 3 days according to the criteria shown in Table 7. The scores of all four extremities were summed up on each mouse basis, and the mean value of 10 animals in each group was represented as an arthritis score (normal “0” up to maximum “16”).

[4] = test system: passive cutaneous anaphylaxis reaction (PCA reaction); experiment: Passive cutaneous anaphylaxis reaction in mouse; type: in vivo; settings: ICR mouse, oral, 3.0 mg/mL at 10 mL/kg, vs solvent group (FIG. 2)
Text: Test of Passive Cutaneous Anaphylaxis Reaction in Mouse
Since BTK plays an important role in FcεRI signal transmission in a mast cell, it was investigated whether a mast cell-involving immediate allergic reaction, namely, passive cutaneous anaphylaxis reaction (PCA reaction), which is an immediate allergic reaction involving mast cell, was inhibited by the administration of the compound.
(Preparation of Test Compound Solution)
DMSO, polyethylene glycol 400 (PEG#400, Nacalai Tesque, Inc. #28215-95), and 30% (w/v) hydroxypropyl-β-cyclodextrin aqueous solution (HP-β-CD, Sigma Corporation, #332607-500) were successively added to the test compound in this order, and mixed thoroughly to prepare a test compound solution (solvent composition: 5% solution of test compound in DMSO, 30% PEG#400, 65% HP-β-CD [30% (w/v) aqueous solution]). In the solvent control group, a DMSO solution was used instead of the solution of the test compound in DMSO.
An anti DNP-IgE monoclonal antibody (50 μg/mL, Santa Cruz Biotechnology, Inc., #sc-69695) was intradermally administered to both auricles in an ICR mouse under systemic anesthesia (10 μL/site). […] The absorbance of the resultant filtrate at 620 nm was measured, and used as an index of the dye leakage level. […]

Structure (SMILES) | Toxic signs such as weight loss ([1]; Day 0 to Day 20) | Inhibition of onset of arthritis (arthritis score) ([1]; Day 0 to Day 20 (FIG. 4)) | inhibition at 0.3 µM (BTK) [%] | Inhibition of change of intracellular calcium ion induced by BCR-stimulation [2] | Toxic signs such as weight loss ([3]; Day 18 to Day 36) | Inhibition of onset of arthritis (arthritis score) ([3]; Day 18 to Day 36 (FIG. 3)) | Inhibition of leakage of the dye into the auricles (PCA reaction) [4]
Cn1cc(Nc2nc(N)nc(-c3cccc(-n4ccc5cc(C6CC6)cc(F)c5c4=O)c3CO)n2)cn1 [Example 1, 2-(3-{4-Amino-6-[(1-methyl-1H-pyrazol-4-yl)amino]-1,3,5-triazin-2-yl}-2-(hydroxymethyl)phenyl)-6-cyclopropyl-8-fluoroisoquinolin-1(2H)-one] | able to circumvent any toxic signs such as weight loss | inhibited the onset of the arthritis in a dose dependent manner | ≥ 70 | in a concentration-dependent manner from a low concentration; also recorded: inhibits the BCR signal in the Ramos cells in a concentration dependent manner | able to circumvent any toxic signs such as weight loss | inhibited the onset of the arthritis in a dose dependent manner | inhibited the leakage of the dye in blood into the auricles significantly
Cn1cc(Nc2nc(N)nc(-c3cccc(-n4ccc5cc(C6CC6)cc(F)c5c4=O)c3CO)n2)cc1C#N [Example 2, 4-({4-Amino-6-[3-(6-cyclopropyl-8-fluoro-1-oxoisoquinolin-2(1H)-yl)-2-(hydroxymethyl)phenyl]-1,3,5-triazin-2-yl}amino)-1-methyl-1H-pyrrole-2-carbonitrile] | – | – | ≥ 70 | – | – | – | –
